Like-named read-outs stand apart in the source and are kept apart here.
How the values were obtained:
JNK1α1(h) = JNK1α1(h) (Homo sapiens (Human), UniProt P45983); experiment: KinaseProfiler panel; format: biochemical; parameters: dose or concentration left out as unconfirmed; conditions: activity remaining
DDR1(h) = DDR1(h) (Homo sapiens (Human), UniProt Q08345); experiment: KinaseProfiler panel; format: biochemical; parameters: dose or concentration left out as unconfirmed; conditions: activity remaining
DDR1(h), sequence (Q08345 19-913): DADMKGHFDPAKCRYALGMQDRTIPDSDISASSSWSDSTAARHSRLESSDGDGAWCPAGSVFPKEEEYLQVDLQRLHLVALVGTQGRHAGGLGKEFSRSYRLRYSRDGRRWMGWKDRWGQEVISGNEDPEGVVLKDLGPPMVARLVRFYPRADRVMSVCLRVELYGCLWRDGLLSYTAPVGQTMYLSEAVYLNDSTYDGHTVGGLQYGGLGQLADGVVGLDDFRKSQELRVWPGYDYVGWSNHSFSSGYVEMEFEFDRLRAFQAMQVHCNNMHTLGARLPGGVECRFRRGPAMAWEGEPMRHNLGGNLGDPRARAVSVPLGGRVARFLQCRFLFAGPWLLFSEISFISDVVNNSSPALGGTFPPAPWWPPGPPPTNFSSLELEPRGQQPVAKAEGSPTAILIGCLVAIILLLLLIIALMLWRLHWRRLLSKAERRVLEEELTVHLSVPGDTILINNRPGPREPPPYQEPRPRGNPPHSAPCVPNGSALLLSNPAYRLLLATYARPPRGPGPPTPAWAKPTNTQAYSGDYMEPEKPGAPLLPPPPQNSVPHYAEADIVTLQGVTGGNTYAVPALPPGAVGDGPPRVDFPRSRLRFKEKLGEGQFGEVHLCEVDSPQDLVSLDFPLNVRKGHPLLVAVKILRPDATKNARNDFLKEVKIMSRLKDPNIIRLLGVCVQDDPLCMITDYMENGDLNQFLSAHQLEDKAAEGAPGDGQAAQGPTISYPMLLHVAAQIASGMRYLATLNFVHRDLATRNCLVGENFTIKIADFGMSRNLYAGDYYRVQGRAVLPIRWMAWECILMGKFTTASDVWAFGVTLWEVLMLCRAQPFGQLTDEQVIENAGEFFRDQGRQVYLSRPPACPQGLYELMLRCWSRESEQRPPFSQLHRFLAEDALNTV

c-RAF(h) = c-RAF(h) (Homo sapiens (Human), UniProt P04049); experiment: KinaseProfiler panel; format: biochemical; parameters: dose or concentration left out as unconfirmed; conditions: activity remaining
DYRK1B(h) = DYRK1B(h) (Homo sapiens (Human), UniProt Q9Y463); experiment: KinaseProfiler panel; format: biochemical; parameters: dose or concentration left out as unconfirmed; conditions: activity remaining
DYRK1B(h), sequence (Q9Y463 whole entry): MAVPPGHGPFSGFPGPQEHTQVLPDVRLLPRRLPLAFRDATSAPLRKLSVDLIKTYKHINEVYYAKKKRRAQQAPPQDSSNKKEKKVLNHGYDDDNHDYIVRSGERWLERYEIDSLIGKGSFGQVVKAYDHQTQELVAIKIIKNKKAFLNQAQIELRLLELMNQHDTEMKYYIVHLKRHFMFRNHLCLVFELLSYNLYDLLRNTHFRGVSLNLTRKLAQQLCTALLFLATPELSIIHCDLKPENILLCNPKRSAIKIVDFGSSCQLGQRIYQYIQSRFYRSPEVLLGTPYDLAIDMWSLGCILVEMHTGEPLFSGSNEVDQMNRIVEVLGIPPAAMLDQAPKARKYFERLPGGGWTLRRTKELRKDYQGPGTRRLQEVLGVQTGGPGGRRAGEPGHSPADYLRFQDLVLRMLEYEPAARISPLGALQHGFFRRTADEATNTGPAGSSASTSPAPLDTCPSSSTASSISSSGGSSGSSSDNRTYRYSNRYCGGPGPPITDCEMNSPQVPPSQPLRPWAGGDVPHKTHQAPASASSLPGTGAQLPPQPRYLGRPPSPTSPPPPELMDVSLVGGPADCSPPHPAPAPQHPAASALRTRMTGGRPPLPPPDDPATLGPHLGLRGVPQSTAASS

IR(h) = IR(h) (Homo sapiens (Human), UniProt P06213); experiment: KinaseProfiler panel; format: biochemical; parameters: dose or concentration left out as unconfirmed; conditions: activity remaining
IR(h), sequence (P06213 28-1382): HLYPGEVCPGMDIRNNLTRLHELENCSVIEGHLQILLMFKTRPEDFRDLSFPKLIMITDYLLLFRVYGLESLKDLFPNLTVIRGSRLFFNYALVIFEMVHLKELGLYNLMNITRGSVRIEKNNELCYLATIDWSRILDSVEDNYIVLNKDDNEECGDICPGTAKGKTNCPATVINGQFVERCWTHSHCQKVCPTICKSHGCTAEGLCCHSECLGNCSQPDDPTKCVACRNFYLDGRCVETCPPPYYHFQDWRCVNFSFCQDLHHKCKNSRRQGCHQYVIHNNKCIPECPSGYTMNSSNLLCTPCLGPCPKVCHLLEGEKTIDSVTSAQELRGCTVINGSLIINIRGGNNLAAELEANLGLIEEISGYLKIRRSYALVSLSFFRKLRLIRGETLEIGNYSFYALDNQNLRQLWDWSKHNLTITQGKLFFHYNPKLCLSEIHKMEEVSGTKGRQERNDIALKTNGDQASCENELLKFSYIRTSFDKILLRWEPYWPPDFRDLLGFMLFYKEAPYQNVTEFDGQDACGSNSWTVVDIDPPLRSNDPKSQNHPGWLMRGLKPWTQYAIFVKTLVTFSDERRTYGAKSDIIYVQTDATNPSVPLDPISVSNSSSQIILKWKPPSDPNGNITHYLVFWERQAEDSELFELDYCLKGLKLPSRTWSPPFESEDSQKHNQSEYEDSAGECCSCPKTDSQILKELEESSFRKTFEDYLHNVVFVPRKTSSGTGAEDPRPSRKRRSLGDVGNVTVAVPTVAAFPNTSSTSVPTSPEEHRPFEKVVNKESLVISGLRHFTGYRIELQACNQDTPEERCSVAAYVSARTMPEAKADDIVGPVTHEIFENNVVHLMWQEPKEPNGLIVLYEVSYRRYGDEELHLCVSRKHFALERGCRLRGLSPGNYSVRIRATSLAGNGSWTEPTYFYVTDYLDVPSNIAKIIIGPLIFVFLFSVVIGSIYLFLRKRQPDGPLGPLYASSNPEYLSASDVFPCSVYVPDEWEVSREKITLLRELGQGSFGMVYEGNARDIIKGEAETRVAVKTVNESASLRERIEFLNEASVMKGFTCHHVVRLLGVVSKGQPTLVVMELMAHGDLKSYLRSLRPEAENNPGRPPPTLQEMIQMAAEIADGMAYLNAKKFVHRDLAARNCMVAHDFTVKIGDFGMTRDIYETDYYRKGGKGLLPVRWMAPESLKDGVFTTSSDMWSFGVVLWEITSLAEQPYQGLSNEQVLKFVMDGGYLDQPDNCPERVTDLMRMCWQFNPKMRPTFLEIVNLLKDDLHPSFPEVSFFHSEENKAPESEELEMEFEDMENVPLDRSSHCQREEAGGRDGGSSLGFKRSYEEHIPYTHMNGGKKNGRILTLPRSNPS

PKCδ(h) = PKCδ(h) (Homo sapiens (Human), UniProt Q05655); experiment: KinaseProfiler panel; format: biochemical; parameters: dose or concentration left out as unconfirmed; conditions: activity remaining
PKCδ(h), sequence (Q05655 whole entry): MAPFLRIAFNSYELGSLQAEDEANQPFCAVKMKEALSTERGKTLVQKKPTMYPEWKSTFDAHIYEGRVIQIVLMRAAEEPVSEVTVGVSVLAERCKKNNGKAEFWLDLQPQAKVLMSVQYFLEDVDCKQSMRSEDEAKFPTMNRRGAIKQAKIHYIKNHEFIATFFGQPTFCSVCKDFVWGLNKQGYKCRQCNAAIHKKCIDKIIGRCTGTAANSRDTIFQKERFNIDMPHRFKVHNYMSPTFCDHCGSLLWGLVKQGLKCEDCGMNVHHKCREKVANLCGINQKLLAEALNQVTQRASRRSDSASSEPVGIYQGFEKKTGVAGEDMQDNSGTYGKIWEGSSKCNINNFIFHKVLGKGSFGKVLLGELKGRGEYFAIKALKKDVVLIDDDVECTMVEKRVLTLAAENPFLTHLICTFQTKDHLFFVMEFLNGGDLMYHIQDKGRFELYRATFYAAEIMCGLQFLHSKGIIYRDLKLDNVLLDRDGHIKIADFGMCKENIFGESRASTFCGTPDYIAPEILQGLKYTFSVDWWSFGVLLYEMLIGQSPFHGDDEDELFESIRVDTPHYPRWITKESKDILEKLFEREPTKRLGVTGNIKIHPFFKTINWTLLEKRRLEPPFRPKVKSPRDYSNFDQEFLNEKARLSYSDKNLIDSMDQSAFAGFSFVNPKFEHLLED

AMPKα2(h) = AMPKα2(h) (Homo sapiens (Human), UniProt P54646); experiment: KinaseProfiler panel; format: biochemical; parameters: dose or concentration left out as unconfirmed; conditions: activity remaining
TYK2(h) = TYK2(h) (Homo sapiens (Human), UniProt P29597); experiment: KinaseProfiler panel; format: biochemical; parameters: dose or concentration left out as unconfirmed; conditions: activity remaining
TYK2(h), sequence (P29597 whole entry): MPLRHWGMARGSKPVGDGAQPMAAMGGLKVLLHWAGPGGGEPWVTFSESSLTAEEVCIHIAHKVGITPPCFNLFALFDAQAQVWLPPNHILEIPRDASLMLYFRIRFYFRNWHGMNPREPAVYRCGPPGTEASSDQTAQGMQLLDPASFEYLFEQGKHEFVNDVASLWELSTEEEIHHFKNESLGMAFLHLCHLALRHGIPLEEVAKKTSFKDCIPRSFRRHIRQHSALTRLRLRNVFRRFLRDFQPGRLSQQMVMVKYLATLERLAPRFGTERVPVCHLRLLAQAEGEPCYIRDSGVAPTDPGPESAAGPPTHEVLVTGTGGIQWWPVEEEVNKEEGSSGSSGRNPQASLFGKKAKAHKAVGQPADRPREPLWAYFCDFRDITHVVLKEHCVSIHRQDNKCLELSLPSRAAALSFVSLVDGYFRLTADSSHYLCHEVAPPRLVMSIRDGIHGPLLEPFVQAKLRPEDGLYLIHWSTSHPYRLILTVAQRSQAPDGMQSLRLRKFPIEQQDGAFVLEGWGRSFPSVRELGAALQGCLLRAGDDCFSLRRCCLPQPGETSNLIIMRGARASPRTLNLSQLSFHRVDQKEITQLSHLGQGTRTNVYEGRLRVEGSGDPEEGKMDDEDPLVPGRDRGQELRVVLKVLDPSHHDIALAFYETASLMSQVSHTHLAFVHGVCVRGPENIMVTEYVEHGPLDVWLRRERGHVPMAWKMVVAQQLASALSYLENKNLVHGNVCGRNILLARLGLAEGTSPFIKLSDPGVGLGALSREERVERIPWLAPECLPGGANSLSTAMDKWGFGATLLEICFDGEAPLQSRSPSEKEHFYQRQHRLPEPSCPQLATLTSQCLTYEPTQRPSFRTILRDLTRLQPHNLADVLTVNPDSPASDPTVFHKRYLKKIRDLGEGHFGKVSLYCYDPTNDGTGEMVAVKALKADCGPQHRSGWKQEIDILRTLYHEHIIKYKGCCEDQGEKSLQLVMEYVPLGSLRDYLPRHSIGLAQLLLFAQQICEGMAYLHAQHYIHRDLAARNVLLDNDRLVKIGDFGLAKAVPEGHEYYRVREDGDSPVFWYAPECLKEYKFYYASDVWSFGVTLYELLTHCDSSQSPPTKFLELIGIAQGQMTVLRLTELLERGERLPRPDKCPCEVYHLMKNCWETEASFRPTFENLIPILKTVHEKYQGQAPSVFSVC

DNA-PK(h) = DNA-PK(h) (Homo sapiens (Human), UniProt P78527); experiment: KinaseProfiler panel; format: biochemical; parameters: dose or concentration left out as unconfirmed; conditions: activity remaining
[1] = test system: NCI-60 human tumor cell line panel; experiment: NCI-60 human tumor cell line screen (GI50); format: cell-based

Question: Which “% Activity” value (JNK1α1(h)) does the source give for `Cc1cc2c(-c3ccc(NC(=O)[C@H](N)CC(C)(C)C)cc3C)ccnc2[nH]1` [Compound F-90, (2R)-2-Amino-4,4-dimethyl-N-[3-methyl-4-(2-methyl-1H-pyrrolo[2,3-b]pyridin-4-yl)phenyl]pentanamide] here?
Answer: 110%

Question: What about the “% Activity” value (DDR1(h)) of the same molecule?
Answer: 98%

Question: And the “% Activity” value (c-RAF(h))?
Answer: 106%

Question: What about the “% Activity” value (DYRK1B(h)) of the same molecule?
Answer: 108%

Question: What about the “% Activity” value (IR(h)) of the same molecule?
Answer: 94%

Question: What about the “% Activity” value (PKCδ(h)) of the same molecule?
Answer: 93%

Question: What about the “% Activity” value (AMPKα2(h)) of the same molecule?
Answer: 117%

Question: And the “% Activity” value (TYK2(h))?
Answer: 103%

Question: What about the “% Activity” value (DNA-PK(h)) of the same molecule?
Answer: 107%

Question: And the GI50 ([1]; 786-0, Renal Cancer)?
Answer: −5.744 Log(M)

Question: And the GI50 ([1]; A498, Renal Cancer)?
Answer: −5.657 Log(M)

Question: And the GI50 ([1]; A549/ATCC, Non-Small Cell Lung Cancer)?
Answer: −4.985 Log(M)

Question: What about the GI50 ([1]; ACHN, Renal Cancer) of the same molecule?
Answer: −4.978 Log(M)

Question: And the GI50 ([1]; BT-549, Breast Cancer)?
Answer: −5.200 Log(M)

Question: And the GI50 ([1]; CAKI-1, Renal Cancer)?
Answer: −5.347 Log(M)

Question: And the GI50 ([1]; CCRF-CEM, Leukemia)?
Answer: −5.267 Log(M)

Question: And the GI50 ([1]; COLO 205, Colon Cancer)?
Answer: −5.741 Log(M)

Question: And the GI50 ([1]; DU-145, Prostate Cancer)?
Answer: −4.905 Log(M)

Question: What about the GI50 ([1]; EKVX, Non-Small Cell Lung Cancer) of the same molecule?
Answer: −4.950 Log(M)

Question: What about the GI50 ([1]; HCC-2998, Colon Cancer) of the same molecule?
Answer: −5.236 Log(M)

Question: And the GI50 ([1]; HCT-15, Colon Cancer)?
Answer: −5.345 Log(M)

Question: What about the GI50 ([1]; HCT-116, Colon Cancer) of the same molecule?
Answer: −5.314 Log(M)

Question: What about the GI50 ([1]; HL-60(TB), Leukemia) of the same molecule?
Answer: −5.539 Log(M)

Question: And the GI50 ([1]; HOP-62, Non-Small Cell Lung Cancer)?
Answer: −4.941 Log(M)

Question: What about the GI50 ([1]; HOP-92, Non-Small Cell Lung Cancer) of the same molecule?
Answer: −5.574 Log(M)

Question: And the GI50 ([1]; HS 578T, Breast Cancer)?
Answer: −5.849 Log(M)

Question: What about the GI50 ([1]; HT29, Colon Cancer) of the same molecule?
Answer: −5.565 Log(M)

Question: What about the GI50 ([1]; Homo sapiens, 786-0, 786-0, Renal Cancer, read-out: GI50) of the same molecule?
Answer: 1.8 µM

Question: And the GI50 ([1]; Homo sapiens, A498, A498, Renal Cancer, read-out: GI50)?
Answer: 2.2 µM

Question: What about the GI50 ([1]; Homo sapiens, A549, A549/ATCC, Non-Small Cell Lung Cancer, read-out: GI50) of the same molecule?
Answer: 10.3 µM

Question: What about the GI50 ([1]; Homo sapiens, ACHN, Renal Cancer, read-out: GI50) of the same molecule?
Answer: 10.5 µM

Question: What about the GI50 ([1]; Homo sapiens, BT-549, BT-549, Breast Cancer, read-out: GI50) of the same molecule?
Answer: 6.3 µM

Question: And the GI50 ([1]; Homo sapiens, CAKI-1, CAKI-1, Renal Cancer, read-out: GI50)?
Answer: 4.5 µM

Question: What about the GI50 ([1]; Homo sapiens, CCRF-CEM, Leukemia, read-out: GI50) of the same molecule?
Answer: 5.4 µM

Question: And the GI50 ([1]; Homo sapiens, COLO 205, COLO 205, Colon Cancer, read-out: GI50)?
Answer: 1.8 µM

Question: What about the GI50 ([1]; Homo sapiens, DU-145, DU-145, Prostate Cancer, read-out: GI50) of the same molecule?
Answer: 12.4 µM

Question: And the GI50 ([1]; Homo sapiens, EKVX, Non-Small Cell Lung Cancer, read-out: GI50)?
Answer: 11.2 µM

Question: What about the GI50 ([1]; Homo sapiens, HCC 2998, HCC-2998, Colon Cancer, read-out: GI50) of the same molecule?
Answer: 5.8 µM

Question: What about the GI50 ([1]; Homo sapiens, HCT-15, HCT-15, Colon Cancer, read-out: GI50) of the same molecule?
Answer: 4.5 µM

Question: And the GI50 ([1]; Homo sapiens, HCT-116, HCT-116, Colon Cancer, read-out: GI50)?
Answer: 4.9 µM

Question: What about the GI50 ([1]; Homo sapiens, HL-60, HL-60(TB), Leukemia, read-out: GI50) of the same molecule?
Answer: 2.9 µM

Question: And the GI50 ([1]; Homo sapiens, HOP-62, HOP-62, Non-Small Cell Lung Cancer, read-out: GI50)?
Answer: 11.4 µM

Question: And the GI50 ([1]; Homo sapiens, HOP-92, HOP-92, Non-Small Cell Lung Cancer, read-out: GI50)?
Answer: 2.7 µM

Question: And the GI50 ([1]; Homo sapiens, HT-29, HT29, Colon Cancer, read-out: GI50)?
Answer: 2.7 µM

Question: And the GI50 ([1]; Homo sapiens, Hs-578T, HS 578T, Breast Cancer, read-out: GI50)?
Answer: 1.4 µM

Question: What about the GI50 ([1]; Homo sapiens, IGROV-1, IGROV1, Ovarian Cancer, read-out: GI50) of the same molecule?
Answer: 12.2 µM

Question: And the GI50 ([1]; Homo sapiens, K562, K-562, Leukemia, read-out: GI50)?
Answer: 2.8 µM

Question: What about the GI50 ([1]; Homo sapiens, KM12, KM12, Colon Cancer, read-out: GI50) of the same molecule?
Answer: 6.1 µM

Question: And the GI50 ([1]; Homo sapiens, LOX IMVI, Melanoma, read-out: GI50)?
Answer: 6.2 µM

Question: And the GI50 ([1]; Homo sapiens, M14, M14, Melanoma, read-out: GI50)?
Answer: 11 µM

Question: And the GI50 ([1]; Homo sapiens, MCF7, MCF7, Breast Cancer, read-out: GI50)?
Answer: 5.5 µM

Question: What about the GI50 ([1]; Homo sapiens, MDA-MB-231, MDA-MB-231/ATCC, Breast Cancer, read-out: GI50) of the same molecule?
Answer: 7.4 µM

Question: And the GI50 ([1]; Homo sapiens, MDA-MB-435, MDA-MB-435, Breast Cancer, read-out: GI50)?
Answer: 7 µM

Question: What about the GI50 ([1]; Homo sapiens, MDA-MB-468, MDA-MB-468, Breast Cancer, read-out: GI50) of the same molecule?
Answer: 2.7 µM

Question: What about the GI50 ([1]; Homo sapiens, MOLT-4, MOLT-4, Leukemia, read-out: GI50) of the same molecule?
Answer: 4.7 µM

Question: What about the GI50 ([1]; Homo sapiens, Malme-3M, Melanoma, read-out: GI50) of the same molecule?
Answer: 10.2 µM

Question: What about the GI50 ([1]; Homo sapiens, NCI-H23, NCI-H23, Non-Small Cell Lung Cancer, read-out: GI50) of the same molecule?
Answer: 12.2 µM

Question: What about the GI50 ([1]; Homo sapiens, NCI-H226, NCI-H226, Non-Small Cell Lung Cancer, read-out: GI50) of the same molecule?
Answer: 10.7 µM

Question: And the GI50 ([1]; Homo sapiens, NCI-H322M, Non-Small Cell Lung Cancer, read-out: GI50)?
Answer: 14.3 µM

Question: And the GI50 ([1]; Homo sapiens, NCI-H460, NCI-H460, Non-Small Cell Lung Cancer, read-out: GI50)?
Answer: 5.7 µM

Question: What about the GI50 ([1]; Homo sapiens, NCI-H522, NCI-H522, Non-Small Cell Lung Cancer, read-out: GI50) of the same molecule?
Answer: 13 µM

Question: And the GI50 ([1]; Homo sapiens, NCI/ADR-RES, Breast Cancer, read-out: GI50)?
Answer: 13.4 µM

Question: What about the GI50 ([1]; Homo sapiens, OVCAR-3, OVCAR-3, Ovarian Cancer, read-out: GI50) of the same molecule?
Answer: 11.6 µM

Question: And the GI50 ([1]; Homo sapiens, OVCAR-4, OVCAR-4, Ovarian Cancer, read-out: GI50)?
Answer: 7 µM

Question: What about the GI50 ([1]; Homo sapiens, OVCAR-5, OVCAR-5, Ovarian Cancer, read-out: GI50) of the same molecule?
Answer: 10.4 µM
